According to US6544987B2, “Compounds, compositions, and methods for stimulating neuronal growth and elongation” (Pfizer Inc., priority 1999, dated 2003):

Molecular target: FKBP12 (Homo sapiens, UniProt P62942)
Test: Affinity for FKBP-12 (Ki), succinyl-Ala-Leu-Pro-Phe-pNA chymotrypsin-coupled assay
Format: biochemical
Details: Table 2; read-out: FKBP12 Kiapps
Experimental: In a quartz cuvette, a final 1 mL buffer concentration was reached (50 mM Hepes, 100 mM NaCl, pH 8.0). Within this final reaction volume, 3.5 μL […] FKBP-12 (in 50 mM Hepes, 100 mM NaCl, pH 8.0) and 10 μL test compound in DMSO were added. The reaction was initiated by adding 10 μL chymotrypsin (100 mg/mL in 1 mM HCl) followed by 5 μL (1-20 mM succinyl-Ala-Leu-Pro-Phe-pNA in 240 mM LiCl/TFE).
The absorbance at 390 nm versus time was monitored for up to 400 seconds. Rate constants were determined from the absorbance versus time plots generated.

FKBP12, sequence (P62942 whole entry, species assumed): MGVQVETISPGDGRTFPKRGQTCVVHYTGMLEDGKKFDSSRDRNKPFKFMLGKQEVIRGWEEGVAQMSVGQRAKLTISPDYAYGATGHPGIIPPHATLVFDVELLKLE

| Compound | Ki |
| --- | --- |
| O=C(OCCCCc1ccccc1)[C@@H]1CCCCN1S(=O)(=O)Oc1ccccc1 [Compound 13, 1-Phenoxy sulfonyl-piperidine-2S-carboxylic acid 4-phenyl-butyl ester] | 6.5 µM |
| O=C(OCc1ccccc1)[C@@H]1CCCN1S(=O)(=O)Oc1ccccc1 [Compound 15, 1-Phenoxy sulfonyl-pyrrolidine-2S-carboxylic acid benzyl ester] | 27.7 µM |
| CCC(C)(C)NS(=O)(=O)N1CCC[C@H]1C(=O)OCc1ccccc1 [Compound 27, 1-(1,1-Dimethyl-propylsulfamoyl)-pyrrolidine-2S-carboxylic acid Benzyl ester] | 2.8 µM |
| O=C(OCc1ccccc1)[C@@H]1CCCN1S(=O)(=O)Nc1ccccc1 [Compound 28, 1-Phenylsulfamoyl-pyrrolidine-2S-carboxylic acid Benzyl ester] | 19.7 µM |
| COc1cc(NS(=O)(=O)N2CCC[C@H]2C(=O)OCc2ccccc2)cc(OC)c1OC [Compound 29, 1-(3,4,5-Trimethoxy-phenylsulfamoyl)-pyrrolidine-2S-carboxylic acid Benzyl ester] | 34.4 µM |
| COc1cc(NS(=O)(=O)N2CCCC[C@H]2C(=O)OCc2ccccc2)cc(OC)c1OC [Compound 36, 1-(3,4,5-Trimethoxy-phenylsulfamoyl)-piperidine-2S-carboxylic acid Benzyl ester] | 0.398 µM |
| NS(=O)(=O)N1CCCC[C@H]1C(=O)OCc1ccccc1 [Compound 37, 1-sulfamoyl-piperidine-2S-carboxylic acid Benzyl ester] | 122 µM |
| CCC(C)(C)NS(=O)(=O)N1CCCC[C@H]1C(=O)OCc1ccccc1 [Compound 38, 1-(1,1-Dimethyl-propylsulfamoyl)-piperidine-2S-carboxylic acid Benzyl ester] | 0.678 µM |
| COc1cc(NS(=O)(=O)N2CCCC[C@H]2C(=O)O)cc(OC)c1OC [Compound 39, 1-(3,4,5-Trimethoxy-phenylsulfamoyl)-piperidine-2S-carboxylic acid] | > 100 µM |
| COc1cc(N2C(=O)[C@@H]3CCCCN3S2(=O)=O)cc(OC)c1OC [Compound 40, 1,1-Dioxo-2-(3,4,5-trimethoxy-phenyl)-hexahydro-1-[1,2,5] Thiadiazolo [2,3-] pyridin-3-one] | 228 µM |
| NS(=O)(=O)N1CCCC[C@H]1C(=O)OCCCCc1ccccc1 [Compound 41, 1-Sulfamoyl-piperidine-2S-carboxylic acid 4-phenyl-butyl ester] | 38 µM |
| O=C(OCCCCc1ccccc1)[C@@H]1CCCCN1S(=O)(=O)Nc1ccc(N2CCOCC2)cc1 [Compound 42, (S)-1-(4-morpholin-4-yl-phenylsulfamoyl)-piperidine-2-carboxylic 4-phenyl-butyl ester] | 0.266 µM |
| COc1ccc(N(C)S(=O)(=O)N2CCCC[C@H]2C(=O)OCCCCc2ccccc2)cc1 [Compound 43, 1-[(4-methoxy-phenyl)-methyl-sulfamoyl]-piperidine-2S-carboxylic acid 4-phenyl-butyl ester] | 19.2 µM |
| CN(c1ccccc1)S(=O)(=O)N1CCCC[C@H]1C(=O)OCCCCc1ccccc1 [Compound 44, 1-(Methyl-phenyl-sulfamoyl)-piperidine-2S-carboxylic acid 4-phenyl-butyl ester] | 12 µM |
| O=C(OCCCCc1ccccc1)[C@@H]1CCCCN1S(=O)(=O)Nc1ccc2[nH]c(=O)[nH]c2c1 [Compound 45, 1-(2-Oxo-2,3-dihydro-1H-benzoimidazol-5-ylsulfamoyl)-piperidine-2-carboxylic acid 4-phenyl-butyl ester] | 0.084 µM |
| COc1ccc2nc(NS(=O)(=O)N3CCCC[C@H]3C(=O)OCCCCc3ccccc3)sc2c1 [Compound 46, 1-(6-Methoxy-benzothiazol-2-ylsulfamoyl)-piperidine-2S-carboxylic acid 4-phenyl-butyl ester] | 37 µM |
| O=C(OCCCCc1ccccc1)[C@@H]1CCCCN1S(=O)(=O)Nn1cccc1 [Compound 47, 1-(Pyrrol-1-ylsulfamoyl)-piperidine-2S-carboxylic acid 4-phenylbutyl ester] | 1.6 µM |
